Measured values as given in a melting point compilation (Tetko et al.; mined from patent text by program, amines drawn as free bases though some values may be those of a salt).

Row | Structure (SMILES) | melting point [°C]
1 | Cc1nc(Cc2ccc(NC(=O)/C=C/c3cnn(C)c3-c3ccc(F)cc3)cc2)no1 | 183 to 184
2 | COc1cc(Oc2ccc(S(C)(=O)=O)nc2)cc2cc(C3=NCC(CC(N)=O)S3)[nH]c12 (stereo not drawn) | 225 to 227
3 | CCn1nc(OCC(=O)C(C)(C)C)c(-c2ccc(S(C)(=O)=O)cc2)c1-c1ccc(F)cc1 | 63 to 66
4 | O=C(CCC1CCN(Cc2ccccc2)CC1)c1cc2c3c(c1)CCN3C(=O)CC2 | 103 to 104
5 | CC(=O)NC(Cc1ccc([N+](=O)[O-])cc1)C(=O)O (stereo not drawn) | 165 to 166
6 | Cc1ccccc1S(=O)(=O)NC(=O)CCc1cc(OC(C)C)nn1Cc1ccc(Cl)cc1Cl | 165 to 166
7 | COC(=O)c1cc(C)cc(C(C)(C)C#N)c1 | 53.8 to 55.9
8 | Cc1c[nH]c2ccc(Nc3ncnc4cc(-c5ccccc5)sc34)cc12 | 221 to 223
9 | COc1cccc(Cc2cc(-c3ccccc3)c(-c3ccccc3)s2)c1 | 100 to 102
10 | CC(C)N(Cc1c(-c2ccccc2)sc(N2C(=O)c3ccccc3C2=O)c1C(=O)c1ccc(Cl)cc1)C(C)C | 168 to 170
11 | CC(=NO)c1ccc2c(c1)CCC2 | 104
12 | C=Cc1ccc2nc(-c3ccccc3)c(-c3ccccc3)nc2c1 | 122 to 123
13 | Cc1nc(N2CCN(Cc3nccc4ccccc34)C2=O)sc1C(=O)NCc1cccnc1 | 151 to 153
14 | COc1cc2c(c3c1OC(C)(C)C3)C(c1cccc(NC(=O)CS(C)=O)c1)=NC(C)(C)C2 (stereo not drawn) | 198 to 201
15 | O=C(O)/C=C/C=C(c1ccc(-c2ccccc2)cc1)c1ccc(-c2ccccc2)cc1 | 253 to 255
16 | C[C@H](CI)[C@H]1CC[C@H]2[C@@H](O[Si](C)(C)C(C)(C)C)CCC[C@]12C | 40 to 41
17 | CCc1ccc(N)c(CS(=O)c2nc3ccccc3[nH]2)c1 (stereo not drawn) | 155 to 156
18 | N#Cc1cnn(-c2c(Cl)cc(C(F)(F)F)cc2Cl)c1C=CC(=O)NS(=O)(=O)Cc1ccccc1 | 178 to 183
19 | Cn1nc(-c2ccc3c(c2)OCO3)c(-c2ccncc2)c1NC(=O)Cc1ccccc1 | 128 to 132
20 | O=C(Nc1nccs1)c1c(C(O)CO)nc2c(C(F)(F)F)cccc2c1O (stereo not drawn) | 255
21 | CCC(C)NCC(O)COc1ccc2c(=O)c(-c3ccccc3)c(-c3ccccc3)oc2c1 (stereo not drawn) | 139 to 140
22 | N#Cc1[nH]c(=O)n(-c2ccc(Cl)cc2)c1C#N | 242 to 245
23 | CC(C)(CO)NS(=O)(=O)c1ccc(Cl)c(NC(=O)c2cnn3c(C(F)(F)F)cc(-c4ccc(C(F)(F)F)cc4)nc23)c1 | 246
24 | O=C1CCc2ccccc2CN1CO | 109 to 110
25 | N#Cc1[nH]c(Br)c(Br)c1Br | 215 to 218
26 | O=C(NCC1CCCC1)NC1CCN(CC23CC(c4ccccc42)c2ccccc23)CC1 | 197 to 198

Row | Structure (SMILES) | melting point [°C]
27 | O=C1NC(=O)C(c2cc(Cl)ccc2S(=O)(=O)Cl)N1 (stereo not drawn) | 211 to 212
28 | O=C1c2c(Cl)cccc2-n2cnc(-c3noc(CN(C4CCCCC4)C4CCCCC4)n3)c2[C@@H]2CCN12 | 155 to 185
29 | CC1(C)C(=O)Nc2ccc(NC(=O)c3ccncc3)cc21 | > 300
30 | c1ccc(C2(Oc3ccccn3)CCNCC2)cc1 | 86 to 87
31 | CCOC(=O)c1cccn1CCN1CCC(=C2c3ccn(C)c3CCn3ccnc32)CC1 | 162
32 | CCN1CCCC(c2ccc(OC)c(OC)c2)C1 (stereo not drawn) | 50
33 | Cc1c(NC(=O)CC(C)(C)C)c(C)c2c(c1C(=O)O)OCC2c1ccc(C(C)C)cc1 (stereo not drawn) | 194 to 195
34 | CC(=O)c1cc2nc(SCc3nccc4c3OCO4)[nH]c2cc1C | 141 to 143
35 | CN(C(=O)c1cccc(C(=O)O)c1)c1ccc2c(=O)n3c(nc2c1)C(=Cc1ccccc1)CC3 | 302 to 304
36 | CN(C)CCCn1c(-c2ccc(Br)cc2)cc2c1CCSC2 | 88 to 90
37 | CC(C)(O)c1ccc(CNC(=O)c2cccnc2Oc2ccc3ncsc3c2)cc1 | 195 to 197
38 | Cc1cc(Br)c(NC(=O)CBr)c(Br)n1 | 197 to 199
39 | O=[N+]([O-])c1cccc2c(NCC34CCCN3CCC4)cccc12 | 95 to 97
40 | Cc1cc([N+](=O)[O-])cc2c1OCC2 | 80 to 81
41 | N=C1N(c2ccccc2)CCN1c1ccccc1[N+](=O)[O-] | 257 to 259
42 | CCCN(CCC)c1ccc(Cl)nn1 | 49 to 51
43 | CC=CC(=O)Nc1n[nH]c2ccc(C(F)(F)F)cc12 | 242
44 | c1cnc(-c2n[nH]c(-c3cnccn3)n2)cn1 | 269 to 270
45 | N#Cc1ncn2c1[C@@H]1CCCN1C(=O)c1ccccc1-2 | 223 to 225
46 | O=C1CCC(N2Cc3c(CNC(=O)NCc4ccccc4)cccc3C2=O)C(=O)N1 (stereo not drawn) | 304 to 306
47 | CC(=O)Nc1ccc(-c2nc3n(c2-c2ccc(NC(C)=O)cc2)CCS3)cc1 | 285 to 290
48 | O=[N+]([O-])c1ccc(Oc2c(Cl)cc(C(F)(F)F)cc2Cl)cc1CO | 143
49 | CCCN(C1CC(C)(C)Oc2ccc(O)cc21)S(=O)(=O)CC (stereo not drawn) | 173 to 175
50 | CC(C)C(NC(=O)OCc1ccccc1)C(=O)NC(Cc1ccc(OCCN2CCOCC2)cc1)C(=O)C(F)(F)C(=O)NCc1ccccc1 (stereo not drawn) | 142
51 | COC(=O)Nc1nc2cc(C(O)c3ccc(F)cc3)ccc2[nH]1 (stereo not drawn) | 300
52 | Fc1cccc2onc(Nc3ccncc3)c12 | 160 to 161

More lines, now with the values ahead:

Row | melting point [°C] | Structure (SMILES)
53 | 141 to 144 | Cc1c(CCN(C)C(=O)OC(C)(C)C)c2cc(S(=O)(=O)c3ccc(C(F)(F)F)cc3)ccc2n1C
54 | 192 to 193 | O=S(=O)(c1nc(-c2ccc(F)cc2)c(-c2cccs2)[nH]1)C(F)(F)C(F)F
55 | 204 to 205 | COc1ccc(-c2ccc(-c3ccc(OC)cc3)c(-c3ccc(O)cc3)n2)cc1
56 | 144 to 145 | COC(=O)CCC(=O)c1cc2c(=O)c3ccccc3ccc2s1
57 | 178 to 179 | COc1cc(OC)c2cc(C(=O)c3ccccc3)c(=O)oc2c1
58 | 196 to 198 | CC(=O)CN1CCc2c(c(=O)oc3cc(C)c(N)cc23)C1
59 | > 220 | CC(NC1=NS(=O)(=O)c2ccc(Cl)cc2N1)C(C)(C)C (stereo not drawn)
60 | 127 to 128 | COc1cc(C=O)ccc1OCc1nc(N2CCOCC2)sc1C
61 | 152 to 154 | CC(=Cc1ccccc1)COc1cc(C)c(NC=O)c(C)c1C
62 | 246 to 248 | O=C1CC(c2cccc(-n3ccnn3)c2)=Nc2ccc(C#Cc3ccc(F)cc3)cc2N1
63 | 96 to 98 | NC(=O)C[C@H](NC(=O)CCc1ccc(OCc2ccccc2)cc1OCc1ccccc1)C(=O)N1CCN(c2ccccc2)CC1
64 | 116 to 117 | O=C(Nc1ccc(F)cc1F)c1cccc(Oc2cccc(Cl)c2)n1
65 | 121 to 122 | Cc1c(Cc2cccc(C(F)(F)F)c2)sc2c(-c3cccc(C(=O)NCCOC(C)C)c3)cccc12
66 | 183 to 186 | COc1cc2c(cc1OC)CN(c1nc(Cl)nc3cc(OC)c(OC)cc13)CC2
67 | 159 to 161 | Cc1noc(-c2cccc(CN3CCN(c4ccc(NC(=O)OC(C)(C)C)cc4)CC3)c2)n1
68 | 170 to 171 | CCOCCn1c(C)c(C2(c3ccc(N(C)C)cc3C)OC(=O)c3ccccc32)c2ccccc21 (stereo not drawn)
69 | 208 to 209 | Cc1ccc(-c2c(C(=O)NCc3ccccc3)oc(=O)c3ncccc23)cc1
70 | 160 | CS(=O)(=O)c1nc2c(F)cccc2s1
71 | 88 to 91 | O=C1N(Cc2ccccc2OC(F)(F)F)c2ccccc2C12COc1cc3c(cc12)OCO3 (stereo not drawn)
72 | 209 | CC(=O)OC1CSC(Sc2ccccc2S(C)(=O)=O)C(OC(C)=O)C1OC(C)=O (stereo not drawn)
73 | 167 to 168 | N#Cc1cn(-c2ccc(C(F)(F)F)cc2)c(=O)n(SC(Cl)(Cl)Cl)c1=O
74 | 107 | COC(=O)CCCc1cc2nc(Cl)ccc2n1S(=O)(=O)c1cccc(Cl)c1
75 | 120 to 122 | COc1cc(Br)c([N+](=O)[O-])cc1OC

Row | melting point [°C] | Structure (SMILES)
76 | 57 to 58 | CCNC1=NN(c2ccc(Cl)cc2)C(C)C1 (stereo not drawn)
77 | 122 to 127 | CN(C)CCc1[nH]c2ccccc2c1CC#N
78 | 59 to 61 | FC(F)(F)c1ccn(-c2cccnc2)n1
79 | 100 to 102 | Cc1c(C)c2c(c(C)c1OC(=O)c1ccccc1)SC(C)O2 (stereo not drawn)
80 | 129 to 131 | CCCn1nc(C)c(NC(C)=O)c1C#N
81 | 182 to 183 | CN(C)C=NS(=O)(=O)c1cc(C(C)(C)C)cc(C=O)c1O
82 | 79 to 83 | Oc1ccc(OCc2nnc(C3CC3)s2)cc1
83 | 255 | O=C(O)CNC(=O)n1cc(C(=O)c2ccn3c2CSC3c2cccnc2)c2ccc(-c3ccc(F)cc3)cc21 (stereo not drawn)
84 | 208 to 209 | N#Cc1cc(C(=O)NNC(=O)c2occc2-c2ccc(OCc3ccccc3)cc2)ccc1O
85 | 136 to 137 | Cc1on(C(=O)N(c2ccc(Cl)cc2)C(C)C)c(=O)c1Cl
86 | 72 to 74 | COc1cccc2ocnc12
87 | 118 | CC(C)CN1C(=O)N(C)C2(NC(=O)NC2=O)c2cc(Cl)ccc21 (stereo not drawn)
88 | 205 | Cc1cc(C=O)c(OCCCCOc2c(C=O)cc(C)cc2C=O)c(C=O)c1
89 | 191 to 194 | CCS(=O)(=O)Nc1cc(-c2ncnc(C(F)(F)F)c2Cl)c(F)cc1C#N
90 | 201 to 205 | CN1c2c(occ(CO)c2=O)-c2ccccc2S1(=O)=O
91 | 174 to 176 | CC(C)c1ccc2c(c1)C(c1ccc(Cl)c(Cl)c1)Cc1cnc(N)nc1-2 (stereo not drawn)
92 | 194 to 195 | CC(C)C1COCc2nc3c(N)nc4cc(OCCN5CCOCC5)ccc4c3n21 (stereo not drawn)
93 | 90 to 92 | COC(=O)c1cc(N=NN(C)C)cs1
94 | 165 to 167 | CC(C)Cn1c(CCCCNC(=O)OC(C)(C)C)nc2c(N)nc3ccccc3c21
95 | 250 | O=C(O)c1cn(Cc2ccccc2)c2cc(Cl)c(F)cc2c1=O
96 | 130 | O=CNC1CCc2ccccc2N(C=O)C1 (stereo not drawn)
97 | 210 to 212 | CCCCC=C1SC(=S)N(N=c2sc3ccccc3s2)C1=O
98 | 131 | COC(=O)CCOc1ccccc1CNC(=O)C1Cc2ccccc2N1S(=O)(=O)c1ccc(-c2cccc(C(F)(F)F)c2)cc1 (stereo not drawn)
